Assay results from US10829473B2, “Modulators of the cystic fibrosis transmembrane conductance regulator protein and methods of use” (AbbVie Overseas S.Á.R.L., priority 2017, dated 2020).
pEC50: −log10 of the molar value. Where two headings read alike, the source gives them in different places. Marks after values point to notes of the source that are not given here.

Biological target: T1, F508delCFTR (Homo sapiens, UniProt P13569, DEL508-508)
T1 construct: expressed in transfected cells; host or cells: CFBE41o- human lung derived epithelial cells (CFBE41o-F508delCFTR-HRP), doxycycline-inducible
T1 sequence (P13569 with tags, fused parts or gaps DEL508-508): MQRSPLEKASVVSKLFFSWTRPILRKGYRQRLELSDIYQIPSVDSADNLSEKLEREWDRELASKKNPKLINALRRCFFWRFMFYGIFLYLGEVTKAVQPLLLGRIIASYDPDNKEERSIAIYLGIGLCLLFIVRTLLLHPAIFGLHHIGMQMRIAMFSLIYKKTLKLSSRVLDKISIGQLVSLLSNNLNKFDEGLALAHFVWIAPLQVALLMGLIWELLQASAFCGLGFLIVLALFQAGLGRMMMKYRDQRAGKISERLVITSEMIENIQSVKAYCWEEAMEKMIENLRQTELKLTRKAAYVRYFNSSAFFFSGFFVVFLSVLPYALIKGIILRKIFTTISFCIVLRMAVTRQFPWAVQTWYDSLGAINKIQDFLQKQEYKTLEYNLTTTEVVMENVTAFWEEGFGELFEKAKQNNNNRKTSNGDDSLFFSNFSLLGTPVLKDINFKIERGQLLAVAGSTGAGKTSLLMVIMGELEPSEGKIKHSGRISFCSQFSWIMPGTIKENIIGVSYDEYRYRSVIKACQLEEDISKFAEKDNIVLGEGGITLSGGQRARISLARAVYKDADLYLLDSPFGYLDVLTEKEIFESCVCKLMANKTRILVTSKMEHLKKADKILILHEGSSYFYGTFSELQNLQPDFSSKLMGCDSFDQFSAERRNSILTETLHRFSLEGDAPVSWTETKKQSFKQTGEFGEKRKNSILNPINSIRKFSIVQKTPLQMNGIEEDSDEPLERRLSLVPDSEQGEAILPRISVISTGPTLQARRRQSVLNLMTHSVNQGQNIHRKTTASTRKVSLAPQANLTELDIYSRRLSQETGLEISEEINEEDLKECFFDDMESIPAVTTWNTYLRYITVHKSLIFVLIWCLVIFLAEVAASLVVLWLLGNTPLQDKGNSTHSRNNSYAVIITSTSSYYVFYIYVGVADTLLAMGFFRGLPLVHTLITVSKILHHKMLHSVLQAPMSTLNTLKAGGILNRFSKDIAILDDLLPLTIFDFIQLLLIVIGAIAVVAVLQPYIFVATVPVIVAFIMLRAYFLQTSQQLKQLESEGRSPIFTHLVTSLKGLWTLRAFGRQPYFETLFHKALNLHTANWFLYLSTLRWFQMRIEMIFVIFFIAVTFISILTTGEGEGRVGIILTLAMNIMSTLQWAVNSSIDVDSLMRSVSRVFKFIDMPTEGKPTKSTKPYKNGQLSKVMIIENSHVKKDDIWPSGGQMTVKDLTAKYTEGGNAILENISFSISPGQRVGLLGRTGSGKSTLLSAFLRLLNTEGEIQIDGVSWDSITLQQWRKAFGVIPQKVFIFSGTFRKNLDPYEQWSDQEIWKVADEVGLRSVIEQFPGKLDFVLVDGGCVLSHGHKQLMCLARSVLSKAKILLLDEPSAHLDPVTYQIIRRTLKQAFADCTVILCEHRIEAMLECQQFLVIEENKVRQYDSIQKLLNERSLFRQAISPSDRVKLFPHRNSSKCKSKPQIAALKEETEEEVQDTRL
Experiment: Cell Surface Expression-Horse Radish Peroxidase (CSE-HRP) Assay;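 on EC50 (with co-corrector): co-corrector chromenyl benzoic acid corrector at 2 or 3 µM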
Format: cell-based
Details: for Maximum % activity (with co-corrector) / Emax: maximum at any tested concentration; for Emax: read-out: Maximum % activity (without co-corrector)
Procedure, shortened: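 Corrector compounds were given as 8-point 3-fold series from 20 or 30 μM, with or without a 2 μM co-corrector, for 18-24 h at 33 °C. Surface HRP was read by luminol luminescence as % of positive control; variable-Hill-slope sigmoidal fitting gave EC50 from triplicate plates.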

[1] = test compound with co-corrector
[2] = test compound with co-corrector, read-out: EC50 (with co-corrector)
[3] = test compound without co-corrector
[4] = test compound without co-corrector, read-out: EC50 (without co-corrector)
[5] = test compound alone, without co-corrector, read-out: EC50 (without co-corrector)
[6] = with co-corrector, read-out: EC50 (with co-corrector)

| SMILES | Maximum % activity (with co-corrector) [1] | pEC50 [2] | Emax [3] [%] | pEC50 [4] | EC50 (with co-corrector) [1] | pEC50 [5] | Maximum % activity (with co-corrector) (with co-corrector) | pEC50 [6] | Emax (without co-corrector) [%] | EC50 (without co-corrector) [3] |
| --- | --- | --- | --- | --- | --- | --- | --- | --- | --- | --- |
| COc1cc(C2(C(=O)NS(=O)(=O)c3cccc4c3CCCN4)CC2)c(Cl)cn1 [GII-7, 1-(5-chloro-2-methoxypyridin-4-yl)-N-(1,2,3,4-tetrahydroquinoline-5-sulfonyl)cyclopropane-1-carboxamide] | +++ (≥350) | 5.00 to 5.52 | 50 to 150 | 5.00 to 5.52 | – | – | – | – | – | – |
| CC(C)Oc1cnc(C2CCC2)cc1C1(C(=O)NS(=O)(=O)c2cccc3c2CCCN3)CC1 [GII-26, 1-{2-cyclobutyl-5-[(propan-2-yl)oxy]pyridin-4-yl}-N-(1,2,3,4-tetrahydroquinoline-5-sulfonyl)cyclopropane-1-carboxamide] | +++ (≥350) | 5.00 to 5.52 | > 150 | 5.00 to 5.52 | – | – | – | – | – | – |
| COCCOc1cnc(OC)cc1C1(C(=O)NS(=O)(=O)c2cccc3[nH]ccc23)CC1 [GII-45, N-(1H-indole-4-sulfonyl)-1-[2-methoxy-5-(2-methoxyethoxy)pyridin-4-yl]cyclopropane-1-carboxamide] | +++ (≥350) | 5.00 to 5.52 | > 150 | 5.00 to 5.52 | – | – | – | – | – | – |
| CCc1cnc(N2CCC(OC(C)C)CC2)c(C2(C(=O)NS(=O)(=O)c3cccc4[nH]ccc34)CC2)c1 [Example GI-102, 1-(5-ethyl-2-{4-[(propan-2-yl)oxy]piperidin-1-yl}pyridin-3-yl)-N-(1H-indole-4-sulfonyl)cyclopropane-1-carboxamide] | +++ (≥350) | > 5.52 | > 150 | 5.00 to 5.52 | – | – | – | – | – | – |
| CCc1cnc(N2CCC(COC)CC2)c(C2(C(=O)NS(=O)(=O)c3cccc4ncccc34)CC2)c1 [GII-59, 1-{5-ethyl-2-[4-(methoxymethyl)piperidin-1-yl]pyridin-3-yl}-N-(quinoline-5-sulfonyl)cyclopropane-1-carboxamide] | +++ (≥350) | 5.00 to 5.52 | > 150 | 5.00 to 5.52 | – | – | – | – | – | – |
| Cc1cnc(N(C)C)c(C2(C(=O)NS(=O)(=O)c3cccc4ncccc34)CC2)c1 [GII-41, 1-[2-(dimethylamino)-5-methylpyridin-3-yl]-N-(quinoline-5-sulfonyl)cyclopropane-1-carboxamide] | +++ (≥350) | 5.00 to 5.52 | 50 to 150 | 5.00 to 5.52 | – | – | – | – | – | – |
| COc1nc(N)ccc1C1(C(=O)NS(=O)(=O)c2cccc3ncccc23)CC1 [GIII-30] | + (<150) | – | < 50 | < 5.00 | ++^a | – | – | – | – | – |
| COc1ccc(C2CCC2)c(C2(C(=O)NS(=O)(=O)c3cccc4nc(C)ccc34)CC2)c1 [II-47] | – | – | – | – | – | > 5.52 | +++ (≥350) | > 5.52 | > 150 | – |
| COc1cc(C2CCC2)cc(OC)c1C1(C(=O)NS(=O)(=O)c2cccc3nc(N)ccc23)CC1 [II-70] | – | – | – | – | – | > 5.52 | +++ (≥350) | > 5.52 | > 150 | – |
| COc1cnc(OC(C)C)c(C2(C(=O)NS(=O)(=O)c3cccc4nc(C)ccc34)CC2)c1 [Example GI-76, 1-{5-methoxy-2-[(propan-2-yl)oxy]pyridin-3-yl}-N-(2-methylquinoline-5-sulfonyl)cyclopropane-1-carboxamide] | +++ (≥350) | > 5.52 | > 150 | > 5.52 | – | – | – | – | – | – |
| Cc1cccc(C2(C(=O)NS(=O)(=O)c3ccccc3C)CCOCC2)c1 [Example III-82, N-(2-methylbenzene-1-sulfonyl)-4-(3-methylphenyl)oxane-4-carboxamide] | – | – | – | – | – | < 5.00 | + (<150) | < 5.00 | < 50 | – |
| O=C(NS(=O)(=O)C1CCNCC1)C1(c2ccc(Cl)cc2Cl)CC1 [Example III-77, 1-(2.4-dichlorophcnyl)-N-(piperidine-4-sulfonyl)cyclopropane-1-carboxamide] | – | – | – | – | – | < 5.00 | + (<150) | < 5.00 | < 50 | – |
| COc1ccc(C2CCC2)cc1C1(C(=O)NS(=O)(=O)c2cccc3c2ccn3C)CC1 [Example I-58, 1-(5-cyclobutyl-2-methoxyphenyl)-N-(1-methyl-1H-indole-4-sulfonyl)cyclopropane-1-carboxamide] | – | – | – | – | – | 5.00 to 5.52 | +++ (≥350) | > 5.52 | > 150 | – |
| O=C(NS(=O)(=O)C(F)(F)F)C1(c2ccc(Cl)cc2Cl)CC1 [Example III-105, 1-(2,4-dichlorophenyl)-N-(trifluoromethanesulfonyl)cyclopropane-1-carboxamide] | – | – | – | – | – | < 5.00 | + (<150) | < 5.00 | < 50 | – |
| COc1ccc(C)c(OC)c1C1(C(=O)NS(=O)(=O)c2cccc3nc(C)ccc23)CC1 [Example I-43, 1-(2,6-dimethoxy-3-methylphenyl)-N-(2-methylquinoline-5-sulfonyl)cyclopropane-1-carboxamide] | – | – | – | – | – | > 5.52 | +++ (≥350) | > 5.52 | > 150 | – |
| CCc1cnc(N2CCCC2)c(C2(C(=O)NS(=O)(=O)c3cccc4c3CCCN4)CC2)c1 [GII-35, 1-[5-ethyl-2-(pyrrolidin-1-yl)pyridin-3-yl]-N-(1,2,3,4-tetrahydroquinoline-5-sulfonyl)cyclopropane-1-carboxamide] | ++ (≥150 and <350) | 5.00 to 5.52 | > 150 | 5.00 to 5.52 | – | – | – | – | – | – |
| Cc1ccc(OC(C)C)c(C2(C(=O)NS(=O)(=O)c3cccc4nc(N)ccc34)CC2)c1 [Example I-87, N-(2-aminoquinoline-5-sulfonyl)-1-{5-methyl-2-[(propan-2-yl)oxy]phenyl}cyclopropane-1-carboxamide] | – | – | – | – | – | > 5.52 | +++ (≥350) | > 5.52 | > 150 | – |
| CC(C)Oc1ncc(C2CCC2)cc1C1(C(=O)NS(=O)(=O)c2cccc3[nH]ccc23)CC1 [Example GI-24, 1-{5-cyclobutyl-2-[(propan-2-yl)oxy]pyridin-3-yl}-N-(1H-indole-4-sulfonyl)cyclopropane-1-carboxamide] | – | – | – | – | – | > 5.52 | +++ (≥350) | > 5.52 | > 150 | – |
| CC(C)Oc1ncc(C2CCC2)cc1C1(C(=O)NS(=O)(=O)c2cccc3ncccc23)CC1 [Example GI-22, 1-{5-cyclobutyl-2-[(propan-2-yl)oxy]pyridin-3-yl}-N-(quinoline-5-sulfonyl)cyclopropane-1-carboxamide] | – | – | – | – | – | > 5.52 | +++ (≥350) | > 5.52 | > 150 | – |
| O=C(NS(=O)(=O)c1ccc(Cl)cc1)C1(c2cccc(Cl)c2)CC1 [Example III-10, N-(4-chlorobenzene-1-sulfonyl)-1-(3-chlorophenyl)cyclopropane-1-carboxamide] | – | – | – | – | – | < 5.00 | + (<150) | < 5.00 | < 50 | – |
| COc1ccc(C2(C(=O)NS(=O)(=O)c3cccc4ncccc34)CC2)c(C)n1 [GIII-8] | ++ (≥150 and <350) | – | 50 to 150 | – | ++^a | – | – | – | – | ++^a |
| COc1ccc(C2(C(=O)NS(=O)(=O)c3cccc4c3CCCN4)CC2)c(C)n1 [GIII-15] | ++ (≥150 and <350) | – | < 50 | – | ++^a | – | – | – | – | ++^a |
| CCc1cnc(N(C)C)c(C2(C(=O)NS(=O)(=O)c3cccc4nc(C)ccc34)CC2)c1 [GII-48, 1-[2-(dimethylamino)-5-ethylpyridin-3-yl]-N-(2-methylquinoline-5-sulfonyl)cyclopropane-1-carboxamide] | +++ (≥350) | 5.00 to 5.52 | > 150 | 5.00 to 5.52 | – | – | – | – | – | – |
| O=C(O)c1ccc(Cl)cc1S(=O)(=O)NC(=O)C1(c2ccc(Cl)cc2Cl)CC1 [Example III-68, 4-chloro-2-{[l-(2,4-dichlorophenyl)cyclopropane-1-carbonyl]sulfamoyl}benzoic acid] | – | – | – | – | – | < 5.00 | + (<150) | > 5.52 | < 50 | – |
| COc1cnc(OCC(C)C)c(C2(C(=O)NS(=O)(=O)c3cccc4nc(C)ccc34)CC2)c1 [Example GI-79, 1-[5-methoxy-2-(2-methylpropoxy)pyridin-3-yl]-N-(2-methylquinoline-5-sulfonyl)cyclopropane-1-carboxamide] | +++ (≥350) | > 5.52 | > 150 | > 5.52 | – | – | – | – | – | – |
| COc1ccc(C)cc1C1(C(=O)NS(=O)(=O)c2cccc3nc(C)ccc23)CC1 [Example I-64, 1-(2-methoxy-5-methylphenyl)-N-(2-methylquinoline-5-sulfonyl)cyclopropane-1-carboxamide] | – | – | – | – | – | > 5.52 | +++ (≥350) | > 5.52 | > 150 | – |
| CN1CCN(c2ncc(C3CCC3)cc2C2(C(=O)NS(=O)(=O)c3cccc4ncccc34)CC2)CC1 [GIII-31] | + (<150) | < 5.00 | < 50 | < 5.00 | – | – | – | – | – | – |
| CC(C)Oc1ncc(N2CCC2)cc1C1(C(=O)NS(=O)(=O)c2cccc3[nH]ccc23)CC1 [Example GI-85, 1-{5-(azetidin-1-yl)-2-[(propan-2-yl)oxy]pyridin-3-yl}-N-(1H-indole-4-sulfonyl)cyclopropane-1-carboxamide] | +++ (≥350) | > 5.52 | > 150 | 5.00 to 5.52 | – | – | – | – | – | – |
